Laboratory results published in ChEMBL document CHEMBL1909046, “DrugMatrix in vitro pharmacology data”.

What was measured:
[1] = biological target: Beta-1 adrenergic receptor (Homo sapiens, UniProt P08588); test: DRUGMATRIX: Adrenergic beta1 radioligand binding (ligand: [125I] Cyanopindolol); assay type: cell membranes, CHO-K1, Membrane; settings: cho-k1; Not Active = under 50% inhibition at 10 µM
[2] = biological target: Tyrosine-protein kinase Lck (Homo sapiens, UniProt P06239); test: DRUGMATRIX: Protein Tyrosine Kinase, LCK enzyme inhibition (substrate: Poly(Glu:Tyr)); assay type: cell-based, Insect cells; settings: insect cells; Not Active = under 50% inhibition at 10 µM
Sequence of Tyrosine-protein kinase Lck (P06239 whole entry): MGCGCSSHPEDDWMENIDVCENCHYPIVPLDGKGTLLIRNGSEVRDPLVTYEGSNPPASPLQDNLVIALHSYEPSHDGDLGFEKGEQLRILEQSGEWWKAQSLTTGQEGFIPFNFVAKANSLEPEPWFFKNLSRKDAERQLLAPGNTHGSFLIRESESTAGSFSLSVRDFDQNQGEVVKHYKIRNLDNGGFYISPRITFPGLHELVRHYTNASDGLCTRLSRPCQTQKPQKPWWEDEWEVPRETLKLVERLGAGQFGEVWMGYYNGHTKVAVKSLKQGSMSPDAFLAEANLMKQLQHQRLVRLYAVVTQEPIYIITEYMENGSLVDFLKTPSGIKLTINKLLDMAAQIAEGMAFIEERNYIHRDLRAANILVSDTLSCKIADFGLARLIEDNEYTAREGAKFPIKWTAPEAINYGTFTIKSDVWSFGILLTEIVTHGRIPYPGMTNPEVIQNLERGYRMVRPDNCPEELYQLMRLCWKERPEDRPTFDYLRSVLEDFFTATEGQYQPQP

[3] = DRUGMATRIX: Leukotriene, BLT (LTB4) radioligand binding (ligand: [3H]LTB4); assay type: cell membranes, Membrane; settings: u-937; Not Active = under 50% inhibition at 10 µM
[4] = biological target: Sigma non-opioid intracellular receptor 1 (Homo sapiens, UniProt Q99720); test: DRUGMATRIX: Sigma1 radioligand binding (ligand: [3H] Haloperidol); assay type: cell membranes, Jurkat, Membrane; settings: jurkat; Not Active = under 50% inhibition at 10 µM
Sequence of Sigma non-opioid intracellular receptor 1 (Q99720 whole entry): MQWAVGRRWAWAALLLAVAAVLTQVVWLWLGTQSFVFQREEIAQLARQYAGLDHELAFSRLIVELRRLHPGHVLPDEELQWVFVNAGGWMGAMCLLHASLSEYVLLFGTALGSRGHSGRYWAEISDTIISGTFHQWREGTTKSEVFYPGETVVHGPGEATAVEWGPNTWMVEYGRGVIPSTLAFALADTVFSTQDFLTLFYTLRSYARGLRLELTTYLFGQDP

[5] = biological target: Vascular endothelial growth factor receptor 1 (Homo sapiens, UniProt P17948); assay type: cell-based; settings: huvec; further: in other assays of this panel Not Active means under 50% inhibition at 10 µM
[6] = DRUGMATRIX: Imidazoline I2, Central radioligand binding (ligand: [3H] Idazoxan); assay type: cell membranes, Rattus norvegicus, Wistar, Cerebral cortex, Membrane; settings: Not Active = under 50% inhibition at 10 µM
[7] = DRUGMATRIX: Glutamate, NMDA, Phencyclidine radioligand binding (ligand: [3H] TCP); assay type: cell membranes, Rattus norvegicus, Wistar, Cerebral cortex, Membrane; settings: Not Active = under 50% inhibition at 10 µM
Cannabinoid receptor 1 = Cannabinoid receptor 1 (Homo sapiens, UniProt P21554); assay type: cell membranes, Membrane; settings: chem-1; further: in other assays of this panel Not Active means under 50% inhibition at 10 µM
Sequence of Cannabinoid receptor 1 (P21554 whole entry): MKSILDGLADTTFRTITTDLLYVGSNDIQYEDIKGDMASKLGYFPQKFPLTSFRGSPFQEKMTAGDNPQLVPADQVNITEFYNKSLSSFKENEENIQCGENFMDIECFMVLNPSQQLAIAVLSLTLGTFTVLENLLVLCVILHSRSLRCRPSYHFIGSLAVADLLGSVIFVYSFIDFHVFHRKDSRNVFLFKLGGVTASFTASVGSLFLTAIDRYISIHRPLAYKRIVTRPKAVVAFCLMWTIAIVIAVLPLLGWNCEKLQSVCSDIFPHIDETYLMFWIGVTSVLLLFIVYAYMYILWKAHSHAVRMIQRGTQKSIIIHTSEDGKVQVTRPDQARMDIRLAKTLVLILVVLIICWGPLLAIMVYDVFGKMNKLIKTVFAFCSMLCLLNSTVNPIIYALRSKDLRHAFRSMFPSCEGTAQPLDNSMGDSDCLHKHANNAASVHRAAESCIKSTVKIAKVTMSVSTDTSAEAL

[8] = biological target: Mitogen-activated protein kinase 14 (Homo sapiens, UniProt Q16539); parameters: species or system Escherichia coli;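 further: inhibition of p38alpha enzyme activity in a biochemical kinase assay, with myelin basic protein serving as substrate; in other assays of this panel Not Active means under 50% inhibition at 10 µM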
Sequence of Mitogen-activated protein kinase 14 (Q16539 whole entry): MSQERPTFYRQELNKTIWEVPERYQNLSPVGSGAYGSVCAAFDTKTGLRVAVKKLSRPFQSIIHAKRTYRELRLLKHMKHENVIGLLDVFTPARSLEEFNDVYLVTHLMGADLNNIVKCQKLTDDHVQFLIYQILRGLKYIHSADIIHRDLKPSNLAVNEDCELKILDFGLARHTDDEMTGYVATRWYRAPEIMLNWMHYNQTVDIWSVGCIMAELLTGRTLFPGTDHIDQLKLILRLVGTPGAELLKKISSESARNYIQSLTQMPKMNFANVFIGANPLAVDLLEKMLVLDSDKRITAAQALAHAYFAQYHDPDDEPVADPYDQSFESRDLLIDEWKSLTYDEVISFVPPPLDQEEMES

Insulin receptor = Insulin receptor (Rattus norvegicus, UniProt P15127); assay type: cell membranes, Wistar, Liver, Membrane; further: in other assays of this panel Not Active means under 50% inhibition at 10 µM
Sequence of Insulin receptor (P15127 27-759 limits assumed): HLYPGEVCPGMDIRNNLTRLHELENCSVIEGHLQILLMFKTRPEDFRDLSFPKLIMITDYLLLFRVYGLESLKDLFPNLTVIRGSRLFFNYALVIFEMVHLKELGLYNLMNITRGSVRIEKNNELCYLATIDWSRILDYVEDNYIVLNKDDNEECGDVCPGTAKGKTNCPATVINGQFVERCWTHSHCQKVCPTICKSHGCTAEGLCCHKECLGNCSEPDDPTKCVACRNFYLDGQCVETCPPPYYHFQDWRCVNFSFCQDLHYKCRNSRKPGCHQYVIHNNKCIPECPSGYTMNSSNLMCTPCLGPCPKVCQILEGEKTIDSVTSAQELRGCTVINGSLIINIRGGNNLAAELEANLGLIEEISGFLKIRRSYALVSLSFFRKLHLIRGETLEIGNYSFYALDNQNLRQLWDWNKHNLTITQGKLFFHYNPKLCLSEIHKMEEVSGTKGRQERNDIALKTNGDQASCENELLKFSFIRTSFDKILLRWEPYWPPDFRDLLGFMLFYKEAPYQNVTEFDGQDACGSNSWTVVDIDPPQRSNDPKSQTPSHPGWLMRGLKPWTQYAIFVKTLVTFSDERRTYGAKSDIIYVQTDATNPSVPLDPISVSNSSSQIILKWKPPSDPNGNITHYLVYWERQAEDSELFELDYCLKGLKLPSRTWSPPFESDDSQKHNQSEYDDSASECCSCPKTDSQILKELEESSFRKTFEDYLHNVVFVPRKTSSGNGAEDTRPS
Sequence of Insulin receptor (P15127 764-1383 limits assumed): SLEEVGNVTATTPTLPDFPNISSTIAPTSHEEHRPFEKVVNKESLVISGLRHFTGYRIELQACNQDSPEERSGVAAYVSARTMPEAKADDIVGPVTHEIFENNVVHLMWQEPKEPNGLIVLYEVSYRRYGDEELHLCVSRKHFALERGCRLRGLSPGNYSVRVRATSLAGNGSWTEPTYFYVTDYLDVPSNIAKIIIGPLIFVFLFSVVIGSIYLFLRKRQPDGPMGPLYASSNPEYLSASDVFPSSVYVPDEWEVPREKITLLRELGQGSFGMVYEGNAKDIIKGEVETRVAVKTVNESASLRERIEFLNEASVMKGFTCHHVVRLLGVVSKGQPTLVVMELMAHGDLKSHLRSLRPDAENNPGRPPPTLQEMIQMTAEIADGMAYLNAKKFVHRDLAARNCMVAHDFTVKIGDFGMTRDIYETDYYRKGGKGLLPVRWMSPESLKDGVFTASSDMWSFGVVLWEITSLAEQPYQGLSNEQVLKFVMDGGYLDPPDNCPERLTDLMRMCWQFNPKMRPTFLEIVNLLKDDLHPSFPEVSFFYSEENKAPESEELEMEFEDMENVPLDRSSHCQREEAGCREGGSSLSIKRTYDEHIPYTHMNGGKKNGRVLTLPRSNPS

[9] = biological target: T1, C-X-C chemokine receptor type 2 (Homo sapiens, UniProt P25025); assay type: cell membranes, Membrane; settings: cho-k1; further: in other assays of this panel Not Active means under 50% inhibition at 10 µM
T1 sequence (P25025 whole entry): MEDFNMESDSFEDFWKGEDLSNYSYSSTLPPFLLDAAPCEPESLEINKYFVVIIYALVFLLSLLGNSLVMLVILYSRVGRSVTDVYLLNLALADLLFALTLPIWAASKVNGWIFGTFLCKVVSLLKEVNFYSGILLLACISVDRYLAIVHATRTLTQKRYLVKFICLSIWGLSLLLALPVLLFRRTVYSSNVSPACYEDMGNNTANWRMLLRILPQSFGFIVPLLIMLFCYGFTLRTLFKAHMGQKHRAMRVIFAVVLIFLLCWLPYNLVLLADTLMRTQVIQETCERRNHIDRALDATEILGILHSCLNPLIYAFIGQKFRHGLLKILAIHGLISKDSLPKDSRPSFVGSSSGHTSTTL

[10] = biological target: Delta-type opioid receptor (Homo sapiens, UniProt P41143); assay type: cell membranes, HEK293, Membrane; settings: hek293; further: in other assays of this panel Not Active means under 50% inhibition at 10 µM
Sequence of Delta-type opioid receptor (P41143 whole entry): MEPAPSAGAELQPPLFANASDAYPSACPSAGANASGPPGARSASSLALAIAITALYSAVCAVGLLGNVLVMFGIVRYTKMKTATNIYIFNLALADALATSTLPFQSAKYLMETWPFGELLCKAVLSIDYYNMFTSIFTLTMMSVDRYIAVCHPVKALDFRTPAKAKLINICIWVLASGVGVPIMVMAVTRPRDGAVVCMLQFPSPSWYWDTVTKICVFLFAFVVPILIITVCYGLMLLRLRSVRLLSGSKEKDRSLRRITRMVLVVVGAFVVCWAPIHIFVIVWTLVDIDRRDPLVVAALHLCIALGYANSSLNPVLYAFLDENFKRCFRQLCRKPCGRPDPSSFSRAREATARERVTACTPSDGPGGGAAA

[11] = biological target: Tyrosine-protein kinase Fyn (Homo sapiens, UniProt P06241); test: biochemical; assay type: cell-based, Insect cells; settings: insect cells
Sequence of Tyrosine-protein kinase Fyn (P06241 whole entry): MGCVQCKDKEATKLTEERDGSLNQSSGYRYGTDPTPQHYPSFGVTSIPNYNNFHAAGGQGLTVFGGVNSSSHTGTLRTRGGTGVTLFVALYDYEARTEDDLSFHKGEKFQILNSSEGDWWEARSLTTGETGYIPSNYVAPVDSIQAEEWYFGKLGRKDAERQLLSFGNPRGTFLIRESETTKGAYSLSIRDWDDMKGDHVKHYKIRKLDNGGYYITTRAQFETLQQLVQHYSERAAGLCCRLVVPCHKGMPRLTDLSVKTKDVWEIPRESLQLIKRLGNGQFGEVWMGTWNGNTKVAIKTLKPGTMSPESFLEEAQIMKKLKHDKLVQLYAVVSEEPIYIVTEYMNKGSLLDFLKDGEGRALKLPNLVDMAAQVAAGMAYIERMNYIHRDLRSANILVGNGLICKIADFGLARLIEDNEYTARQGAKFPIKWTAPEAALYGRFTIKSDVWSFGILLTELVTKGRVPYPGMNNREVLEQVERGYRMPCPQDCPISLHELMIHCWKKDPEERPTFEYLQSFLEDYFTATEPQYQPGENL

[12] = biological target: T2, 5-hydroxytryptamine receptor 2C (Homo sapiens, UniProt P28335); test: DRUGMATRIX: Serotonin (5-Hydroxytryptamine) 5-HT2C radioligand binding (ligand: [3H] Mesulergine); assay type: cell membranes, CHO-K1, Membrane; settings: cho-k1; Not Active = under 50% inhibition at 10 µM
T2 sequence (P28335 whole entry): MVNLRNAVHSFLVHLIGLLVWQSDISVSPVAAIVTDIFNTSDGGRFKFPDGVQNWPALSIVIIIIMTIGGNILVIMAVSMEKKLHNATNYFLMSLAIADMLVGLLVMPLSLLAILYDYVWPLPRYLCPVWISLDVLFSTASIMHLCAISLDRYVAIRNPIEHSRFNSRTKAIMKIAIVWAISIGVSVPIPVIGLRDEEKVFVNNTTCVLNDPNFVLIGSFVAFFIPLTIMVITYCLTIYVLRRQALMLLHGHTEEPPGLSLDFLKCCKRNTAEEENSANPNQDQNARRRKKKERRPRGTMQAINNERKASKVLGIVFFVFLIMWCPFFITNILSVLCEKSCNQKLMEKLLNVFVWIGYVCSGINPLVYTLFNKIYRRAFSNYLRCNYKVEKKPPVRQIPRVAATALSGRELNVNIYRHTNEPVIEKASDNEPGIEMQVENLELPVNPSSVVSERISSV

Neutrophil elastase = biological target: T3, Neutrophil elastase (Homo sapiens, UniProt P08246); assay type: tissue-based
T3 sequence (P08246 whole entry): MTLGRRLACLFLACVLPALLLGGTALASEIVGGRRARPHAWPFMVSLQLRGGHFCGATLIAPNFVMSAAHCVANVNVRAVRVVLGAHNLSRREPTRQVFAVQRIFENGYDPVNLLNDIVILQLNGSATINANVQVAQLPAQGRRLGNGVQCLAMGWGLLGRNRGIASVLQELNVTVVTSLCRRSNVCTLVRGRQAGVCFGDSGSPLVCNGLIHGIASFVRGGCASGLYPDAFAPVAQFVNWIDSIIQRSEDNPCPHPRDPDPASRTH

[13] = DRUGMATRIX: Interleukin IL-1 radioligand binding (ligand: [125I] interleukin 1beta); assay type: cell membranes, Membrane; settings: nih3t3; Not Active = under 50% inhibition at 10 µM
[14] = biological target: T4, C-X-C chemokine receptor type 1 (Homo sapiens, UniProt P25024); further: in other assays of this panel Not Active means under 50% inhibition at 10 µM
T4 sequence (P25024 whole entry): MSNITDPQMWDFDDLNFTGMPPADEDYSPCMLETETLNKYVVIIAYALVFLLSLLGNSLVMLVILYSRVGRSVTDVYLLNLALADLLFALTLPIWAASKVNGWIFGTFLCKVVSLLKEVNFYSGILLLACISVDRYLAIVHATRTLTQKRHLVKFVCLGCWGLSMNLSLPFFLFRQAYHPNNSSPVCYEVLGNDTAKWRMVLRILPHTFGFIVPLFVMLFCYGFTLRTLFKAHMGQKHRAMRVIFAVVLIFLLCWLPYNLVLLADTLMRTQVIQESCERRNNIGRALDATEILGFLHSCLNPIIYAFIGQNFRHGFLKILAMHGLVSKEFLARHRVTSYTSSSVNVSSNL

[15] = DRUGMATRIX: Phorbol Ester radioligand binding (ligand: [3H] PDBu); assay type: cell membranes, Mus musculus, ICR, Brain, Membrane; settings: Not Active = under 50% inhibition at 10 µM

Sequence of Beta-1 adrenergic receptor (P08588 whole entry): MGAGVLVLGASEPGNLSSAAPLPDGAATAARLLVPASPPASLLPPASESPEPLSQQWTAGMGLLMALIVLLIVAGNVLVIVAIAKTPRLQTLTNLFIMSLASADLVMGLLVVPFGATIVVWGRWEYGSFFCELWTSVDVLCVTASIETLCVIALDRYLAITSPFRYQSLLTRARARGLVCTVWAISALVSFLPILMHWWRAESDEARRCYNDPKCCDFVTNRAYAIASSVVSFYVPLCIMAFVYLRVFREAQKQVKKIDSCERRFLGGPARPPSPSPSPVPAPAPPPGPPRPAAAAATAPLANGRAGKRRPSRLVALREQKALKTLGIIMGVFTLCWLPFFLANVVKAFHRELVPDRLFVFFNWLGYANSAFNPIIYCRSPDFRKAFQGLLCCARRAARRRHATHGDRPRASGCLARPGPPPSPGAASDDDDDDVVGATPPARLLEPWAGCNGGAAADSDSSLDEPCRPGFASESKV

CC(=O)CCCCn1c(=O)c2c(ncn2C)n(C)c1=O [PENTOXIFYLLINE]
Not Active: IC50 [1] | IC50 [2] | IC50 [3] | Ki [3] | IC50 [4] | IC50 [5] | IC50 [6] | Ki [6] | IC50 [7] | Ki [7] | IC50 (Cannabinoid receptor 1) | IC50 [8] | IC50 (Insulin receptor) | IC50 [9] | IC50 [10] | IC50 [11] | IC50 [12] | IC50 (Neutrophil elastase) | IC50 [13] | Ki [13] | IC50 [14] | IC50 [15] | Ki [15]

Cc1c(-c2ccccc2)oc2c(C(=O)OCCN3CCCCC3)cccc2c1=O [FLAVOXATE]
Not Active: IC50 [1] | IC50 [2] | IC50 [3] | Ki [3] | IC50 [4] | IC50 [5] | IC50 [6] | Ki [6] | IC50 [7] | Ki [7] | IC50 (Cannabinoid receptor 1) | IC50 [8] | IC50 (Insulin receptor) | IC50 [9] | IC50 [10] | IC50 [11] | IC50 [12] | IC50 (Neutrophil elastase) | IC50 [13] | Ki [13] | IC50 [14] | IC50 [15] | Ki [15]

C/C=C1\[C@H]2C=C(C)C[C@]1(N)c1ccc(=O)[nH]c1C2 [HUPERZINE A]
Not Active: IC50 [1] | IC50 [2] | IC50 [3] | Ki [3] | IC50 [4] | IC50 [5] | IC50 [6] | Ki [6] | IC50 [7] | Ki [7] | IC50 (Cannabinoid receptor 1) | IC50 [8] | IC50 (Insulin receptor) | IC50 [9] | IC50 [10] | IC50 [11] | IC50 [12] | IC50 (Neutrophil elastase) | IC50 [13] | Ki [13] | IC50 [14] | IC50 [15] | Ki [15]
